Results reported in patent publication US20110318266A1, “PHTHALIMIDE DERIVATIVE METABOTROPIC GLUTAMATE R4 LIGANDS” (priority 2008, published 2011).
pEC50, pIC50: −log10 of the molar value.

Experiments:
mGluR4 [1] = molecular target: T1, mGluR4 (Homo sapiens, UniProt Q14833); assay: Fluorescent Plate Imaging Reader (FLIPR) Assay for mGluR4 Potentiators; type: cell-based; set-up: expressed in transfected cells; conditions: for Emax: maximal activity relative to response with saturating concentration (10 uM) of agonist L-AP4, read-out: mGlu4 FLIPR % Max Efficacy; for pEC50: potentiator response with EC10 concentration of L-AP4 (30 nM), inflection point of the curve, read-out: mGluR4 FLIPR Potency
T1 sequence (Q14833 33-912): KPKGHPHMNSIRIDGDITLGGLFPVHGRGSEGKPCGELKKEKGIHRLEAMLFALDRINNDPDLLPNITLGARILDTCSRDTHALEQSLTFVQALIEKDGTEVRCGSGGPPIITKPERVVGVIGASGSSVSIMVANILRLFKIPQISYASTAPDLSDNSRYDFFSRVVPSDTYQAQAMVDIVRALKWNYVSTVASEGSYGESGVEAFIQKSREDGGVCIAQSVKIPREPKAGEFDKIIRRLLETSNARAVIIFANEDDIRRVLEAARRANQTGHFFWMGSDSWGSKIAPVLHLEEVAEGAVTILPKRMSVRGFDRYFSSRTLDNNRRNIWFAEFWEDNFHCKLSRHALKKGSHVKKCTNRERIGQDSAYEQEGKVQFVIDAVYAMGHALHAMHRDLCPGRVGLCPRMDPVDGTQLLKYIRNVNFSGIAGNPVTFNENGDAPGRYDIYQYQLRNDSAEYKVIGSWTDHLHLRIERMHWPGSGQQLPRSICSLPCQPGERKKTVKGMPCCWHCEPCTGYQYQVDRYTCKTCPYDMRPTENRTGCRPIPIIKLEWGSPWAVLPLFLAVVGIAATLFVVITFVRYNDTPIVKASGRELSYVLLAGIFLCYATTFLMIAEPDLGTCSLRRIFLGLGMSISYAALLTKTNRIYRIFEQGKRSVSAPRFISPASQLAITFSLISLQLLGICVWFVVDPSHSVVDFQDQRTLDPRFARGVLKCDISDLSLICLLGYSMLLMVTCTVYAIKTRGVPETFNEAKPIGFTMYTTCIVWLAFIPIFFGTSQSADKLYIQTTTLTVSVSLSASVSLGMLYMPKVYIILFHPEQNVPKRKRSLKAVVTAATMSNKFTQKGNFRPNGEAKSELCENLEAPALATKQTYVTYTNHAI
Method: Cells are grown in Corning T162 cm^2 flasks in DMEM growth media at 37° C. and 5% CO2. Growth media contains: Gibco DMEM supplemented with 10% defined FBS, 1% GlutaMax −1, 1% sodium pyruvate, 1% NEAA, 1% Pen/Strep, 250 ug/ml zeocin, 25 mM HEPES, 0.1% 2-Mercaptoethanol, 600 ug/ml Hygromycin B, 7.5 ug/ml blasticidin, and 5 ug/ml puromycin.
The day prior to the experiment the cells were plated in growth medium (minus glutamine) at 50K cells/well into Becton-Dickinson 384-well PDL-coated plates using a Labsystems Multidrop (0.1 ml/well). The cells are grown overnight at 37° C. and 6% CO2.
The following day, the cells are washed with Assay Buffer at 37° C. using a Skatron EMBLA cell washer (3×100 μl, aspiration 3 mm from bottom will leave 30 μl of buffer in each well). Assay buffer is Hanks balanced salt solution with 20 mM HEPES, 2.5 mM probenecid and 0.1% BSA.
Fluorescent dye, 30 μl of the diluted Fluo-4-AM, is added to each well of the plate. The Fluo-4-AM solution is added to achieve a final concentration in the assay of 2 uM Fluo-4-AM, 0.02% pluronic acid and 1% FBS. The assay plates are placed back into the 6% CO2 incubator and incubated at 37° C. for 60 min. The 384-well plates are washed with Assay Buffer at 37° C. on using a cell washer (3×100 μl, aspiration 3 mm from bottom, will leave 30 μl of buffer in each well). The experimental run is initiated and after 30 sec a dose of test compound is applied. The fluorescent response elicited by test compound is monitored for 5 min, any positive response detected at this stage is attributed to agonist properties of the test compound. At this point an EC10 concentration of the mGluR4 agonist L-AP4 ((S)-2-amino-4-phosphonobutanoate) (final concentration 30 nM) is added and the fluorescent response is monitored for an additional 3 minutes, any positive response detected at this stage is attributed to potentiator properties of the test compound.
Controls for the assay include a no compound control, a positive control which is a saturating concentration, 10 uM, of the agonist L-AP4. A 10 point dose response, with either 2-fold or 3-fold dilution steps, is performed and curve fitting algorithms, suitable for a sigmoidal dose response relationship, are used to fit the data. The inflection point of the curve provides a measure of compound potency.
A comparison of the maximal level of activity achieved for a test compound, relative to the response achieved with a saturating concentration of the agonist L-AP4 provides a measure of compound efficacy.

mGluR4 [2] = molecular target: T1, mGluR4; assay: mGluR4 Binding Assay; set-up: expressed in transfected cells; host or cells: CHO cells; conditions: membranes from CHO cells expressing human mGluR4; 20 uM L-AP4; 7 nM radiotracer [3H]-N-(4-{[(2-Chlorophenyl)amino]sulfonyl}phenyl)pyridine-2-carboxamide
Method: Membranes were prepared from CHO cells expressing the human mGluR4 receptor. Cells were harvested using trypsin and then washed in assay buffer, assay buffer contains 50 mM HEPES, 1 mM EDTA and protease inhibitors (Boehringer Mannheim catalog #1 836 170). Harvested cells were pelleted by centrifugation and stored at −80° C. for a minimum of 12 hours. Cells were resuspended in assay buffer and lysed by a polytron, a low speed spin, 2000×g for 10 min, was used to recover unbroken cells for additional treatment using the polytron. The cleared supernatant from the low speed spins was subjected to a high speed spin, 96,000×g for 1 hour. The membrane pellet from the high speed spin was resuspended in assay buffer and used in the mGluR4 binding assay.
The binding assay follows a standard filtration binding paradigm. The binding buffer consists of 20 mM HEPES, 100 mM NaCl and 3 mM MgCl2, the pH of the buffer is 7.4. The assay is performed in a 96-well format with each well containing test compound, 25 to 50 ug of membrane protein, 20 uM L-AP4, and 7 nM radiotracer, [^3H]—N-(4-{[(2-Chlorophenyl)amino]sulfonyl}phenyl)pyridine-2-carboxamide, which is disclosed in commonly owned U.S. patent application docket no.
The binding reaction is incubated at room temperature for 1 hour, and then is passed through GF/B filter that was presoaked with 0.5% PEI. The cell membranes are collected on the filter and then washed five times with ˜5 ml ice cold binding buffer that contains 0.01% BSA. The washed filter plate is dried for 30 minutes at 37° C., scintillation fluid is added, and the amount of filter bound radioactivity is determined using a TopCount instrument. […] To determine the level of non-specific binding for the radiotracer [^3H]—N-(4-{[(2-Chlorophenyl)amino]sulfonyl}phenyl)pyridine-2-carboxamide, 5 uM of unlabeled [^3H]—N-(4-{[(2-Chlorophenyl)amino]sulfonyl}phenyl)pyridine-2-carboxamide is added to determine the level of non-specific binding. […]

Compound | Emax (mGluR4 [1]) [%] | pEC50 (mGluR4 [1]) | pIC50 (mGluR4 [2])
Cc1cccc2c1C(=O)N(c1ccc(NC(=O)c3ccccn3)cc1Br)C2=O [Example 29, N-[3-bromo-4-(4-methyl-1,3-dioxo-1,3-dihydro-2H-isoindol-2-yl)phenyl]pyridine-2-carboxamide] | 109 | 6.99 | 7.92
O=C(Nc1ccc(N2C(=O)c3ccccc3C2=O)cc1)c1ccccn1 [Example 1, N-[4-(1,3-dioxo-1,3-dihydro-2H-isoindol-2-yl)phenyl]pyridine-2-carboxamide] | 52 | 6.47 | 6.15
Cc1cc(NC(=O)c2ccccn2)ccc1N1C(=O)c2ccccc2C1=O [Example 3, N-[4-(1,3-dioxo-1,3-dihydro-2H-isoindol-2-yl)-3-methylphenyl]pyridine-2-carboxamide] | 104 | 6.41 | 5.76

The next lines start with the values.

Emax (mGluR4 [1]) [%] | pEC50 (mGluR4 [1]) | pIC50 (mGluR4 [2]) | Compound
110 | 7.30 | – | O=C(Nc1ccc(N2C(=O)c3cccc(F)c3C2=O)c(Cl)c1)c1ccccn1 [Example 10, N-[3-chloro-4-(4-fluoro-1,3-dioxo-1,3-dihydro-2H-isoindol-2-yl)phenyl]pyridine-2-carboxamide]
125 | 7.36 | – | Cc1cccc2c1C(=O)N(c1ccc(NC(=O)c3ccccn3)cc1Cl)C2=O [Example 13, N-[3-chloro-4-(4-methyl-1,3-dioxo-1,3-dihydro-2H-isoindol-2-yl)phenyl]pyridine-2-carboxamide]
